According to publication PMC11181486, “Nonsymmetrically Substituted 1,1′-Biphenyl-Based Small Molecule Inhibitors of the PD-1/PD-L1 Interaction” (ACS Medicinal Chemistry Letters, 2024):

Biological target: T1, hPD-1/hPD-L1 complex (Homo sapiens, UniProt Q9NZQ7)
T1 construct: The human PD-L1 IgV domain (residues 18–134, C-terminal His-tag) was expressed and purified; His-tag (C); made in house
Assay: PD-1/PD-L1 NMR-based antagonist-induced dissociation assay (AIDA)
Assay type: binding
Conditions: complex of hPD-1/hPD-L1 with compound, 1:1 molar ratio protein to compound
Protocol: In addition, we performed a PD-1/PD-L1 NMR-based antagonist-induced dissociation assay (AIDA).[42],[43] The AIDA assay was performed by adding a slight molar excess of PD-L1 to PD-1, which causes ^1H NMR signals to broaden corresponding to complex formation (Figure 2). […] However, in Figure 2 (purple), these are obscured by the sharper NMR signals of monomeric PD-1 released from the PD-L1/PD-1 complex.
Figure 2 NMR-based AIDA assay showing that a compound displaces PD-1 from PD-L1.

T1 sequence (Q9NZQ7 18-134, one chain of several): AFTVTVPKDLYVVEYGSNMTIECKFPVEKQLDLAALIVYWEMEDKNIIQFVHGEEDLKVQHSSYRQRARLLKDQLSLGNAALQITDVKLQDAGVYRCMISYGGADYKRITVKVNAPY

SMILES | AIDA rescue percentage of the PD-1 signal [%]
Cc1c(NC(=O)c2ccc(CNCCO)cn2)cccc1-c1cccc(NC(=O)c2ccc(CNCCCNS(C)(=O)=O)cn2)c1C.Cl.Cl.Cl.Cl [Compound 17a] | 100

System: not listed separately
Assay: Solubility of the compounds (visual evaluation and A600 of dilutions)
Assay type: physicochemical
Conditions: absorbance at 600 nm, 96-well plate; blank 0.0472; values in parentheses unreliable (precipitate)
Protocol: compound was 500 nM). The dilutions were then visually evaluated according to the following […]
+++ clear solution, no precipitation
++ slight turbidity, no precipitate
+ visible turbidity, no precipitate.
+/- strong turbidity, no precipitation.
- visible precipitation and/or visible precipitation in the original 100% DMSO solution.
The dilutions prepared in this way were applied to a 96-well plate and the absorbance measured […]
at a wavelength of 600 nm.
Table S2, Blank of 10 Measurements.
Table S2. Solubility of the compounds

SMILES | A600 measurement (averaged from 2 reps)
Cc1c(NC(=O)c2ccc(CN[C@@H]3CCC[C@H]3O)cn2)cccc1-c1cccc(NC(=O)c2ccc(CN(C)CCO)cn2)c1C [Compound 1] | 0.5138
Cc1c(NC(=O)c2ccc(CN[C@@H](C)CO)cn2)cccc1-c1cccc(NC(=O)c2ccc(CN(C)CCO)cn2)c1C [Compound 2] | 0.4023
Cc1c(NC(=O)c2ccc(CN[C@@H](C)CO)cn2)cccc1-c1cccc(NC(=O)c2ccc(CN(C)CCO)cn2)c1C.Cl.Cl.Cl [Compound 2a] | 0.1517
Cc1c(NC(=O)c2ccc(CNCCCO)cn2)cccc1-c1cccc(NC(=O)c2ccc(CN(CCO)CCO)cn2)c1C [Compound 3] | 0.2786
Cc1c(NC(=O)c2ccc(CN[C@@H]3CCC[C@H]3O)cn2)cccc1-c1cccc(NC(=O)c2ccc(CN(CCO)CCO)cn2)c1C [Compound 4] | 0.2271
Cc1c(NC(=O)c2ccc(CNCCCO)cn2)cccc1-c1cccc(NC(=O)c2ccc(CN(C)C(CO)CO)cn2)c1C [Compound 5] | 0.04735
COC(=O)[C@H](C)NCc1ccc(C(=O)Nc2cccc(-c3cccc(NC(=O)c4ccc(CN5CCCC5)cn4)c3C)c2C)nc1 [Compound 6] | 0.0627
Cc1c(NC(=O)c2ccc(CNCCCO)cn2)cccc1-c1cccc(NC(=O)c2ccc(CN(C)CCO)cn2)c1C [Compound 7] | 0.3466
Cc1c(NC(=O)c2ccc(CN(C)CCO)cn2)cccc1-c1cccc(NC(=O)c2ccc(CN(CCO)CCO)cn2)c1C [Compound 8] | 0.459
Cc1c(NC(=O)c2ccc(CNCCO)cn2)cccc1-c1cccc(NC(=O)c2ccc(CNCCCNS(C)(=O)=O)cn2)c1C.Cl.Cl.Cl.Cl [Compound 17a] | 0.2848

Same assay, conditions: kinetic from dmso stock; dilutions from DMSO stock, visually evaluated

SMILES | solubility [µM]
Cc1c(NC(=O)c2ccc(CN[C@@H]3CCC[C@H]3O)cn2)cccc1-c1cccc(NC(=O)c2ccc(CN(C)CCO)cn2)c1C [Compound 1] | < 500
Cc1c(NC(=O)c2ccc(CN[C@@H](C)CO)cn2)cccc1-c1cccc(NC(=O)c2ccc(CN(C)CCO)cn2)c1C [Compound 2] | < 500
Cc1c(NC(=O)c2ccc(CN[C@@H](C)CO)cn2)cccc1-c1cccc(NC(=O)c2ccc(CN(C)CCO)cn2)c1C.Cl.Cl.Cl [Compound 2a] | < 500
Cc1c(NC(=O)c2ccc(CNCCCO)cn2)cccc1-c1cccc(NC(=O)c2ccc(CN(CCO)CCO)cn2)c1C [Compound 3] | < 500
Cc1c(NC(=O)c2ccc(CN[C@@H]3CCC[C@H]3O)cn2)cccc1-c1cccc(NC(=O)c2ccc(CN(CCO)CCO)cn2)c1C [Compound 4] | < 500
Cc1c(NC(=O)c2ccc(CNCCCO)cn2)cccc1-c1cccc(NC(=O)c2ccc(CN(C)C(CO)CO)cn2)c1C [Compound 5] | < 500
COC(=O)[C@H](C)NCc1ccc(C(=O)Nc2cccc(-c3cccc(NC(=O)c4ccc(CN5CCCC5)cn4)c3C)c2C)nc1 [Compound 6] | < 500
Cc1c(NC(=O)c2ccc(CNCCCO)cn2)cccc1-c1cccc(NC(=O)c2ccc(CN(C)CCO)cn2)c1C [Compound 7] | < 500
Cc1c(NC(=O)c2ccc(CN(C)CCO)cn2)cccc1-c1cccc(NC(=O)c2ccc(CN(CCO)CCO)cn2)c1C [Compound 8] | < 500
Cc1c(NC(=O)c2ccc(CNCCO)cn2)cccc1-c1cccc(NC(=O)c2ccc(CNCCCNS(C)(=O)=O)cn2)c1C.Cl.Cl.Cl.Cl [Compound 17a] | < 500

Biological target: T2, PD-1/PD-L1 (Homo sapiens, UniProt Q9NZQ7)
Assay: Homogeneous time-resolved fluorescence (HTRF) PD-1/PD-L1 assay (CisBio kit)
Assay type: binding
Design: Tag1 or Tag2 (kit's undisclosed tag); purchased CisBio
Conditions: not given
Protocol: The certified CisBio kit was used to conduct the HTRF assay, adhering to the manufacturer’s guidelines. The assay setup comprised hPD-1, hPD-L1, anti-Tag1 tagged with Europium cryptate (HTRF donor), and anti-Tag2 tagged with XL665 (HTRF acceptor). The experiments utilized final concentrations of 5 nM hPD-L1 and 50 nM hPD-1 in a 20 μL total volume performed in triplicate. Per the CisBio instructions, all components were combined, the plate was incubated at ambient temperature for 2 h, and the TR-FRET (time-resolved fluorescence energy transfer) was carried out using the Tecan Spark 20M. The negatives in the acquired data were subtracted for background, the positives were standardized, and then the data were averaged.
of 50 mM of the compound. Samples were then diluted to 50 nM and used for measurements.
Target sequence in this assay (Q9NZQ7 19-238 limits assumed): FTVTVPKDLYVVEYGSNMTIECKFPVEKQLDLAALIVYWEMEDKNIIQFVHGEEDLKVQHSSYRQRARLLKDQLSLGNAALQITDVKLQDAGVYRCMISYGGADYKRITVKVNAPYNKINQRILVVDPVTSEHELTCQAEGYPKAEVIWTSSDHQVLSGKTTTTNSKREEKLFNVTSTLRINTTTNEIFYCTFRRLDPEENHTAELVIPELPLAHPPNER

SMILES | IC50 [µM]
Cc1c(NC(=O)c2ccc(CN[C@@H](C)CO)cn2)cccc1-c1cccc(NC(=O)c2ccc(CN(C)CCO)cn2)c1C [Compound 2] | 0.00146
Cc1c(NC(=O)c2ccc(CNCCO)cn2)cccc1-c1cccc(NC(=O)c2ccc(CNCCCNS(C)(=O)=O)cn2)c1C.Cl.Cl.Cl.Cl [Compound 17a] | 0.00306

Same assay, conditions: 5 nM inhibitor concentration

SMILES | dissociation of the PD-1/PD L1 complex (HTRF) [%] | undissociated complex in the HTRF assay [%]
Cc1c(NC(=O)c2ccc(CNCCO)cn2)cccc1-c1cccc(NC(=O)c2ccc(CNCCCNS(C)(=O)=O)cn2)c1C.Cl.Cl.Cl.Cl [Compound 17a] | 83 | 17

Same assay, conditions: 2 h, at the 5 nM concentration of the inhibitor; 5 nM hPD-L1, 50 nM hPD-1; read-out: HTRF Fraction of the undissociated protein complex

SMILES | remaining activity at 0.005 µM [%]
Cc1c(NC(=O)c2ccc(CN[C@@H](C)CO)cn2)cccc1-c1cccc(NC(=O)c2ccc(CN(C)CCO)cn2)c1C [Compound 2] | 42

Biological target: T2, PD-1/PD-L1
Assay: cell-based
Design: host or cells: PD-L1+ aAPC/CHO-K1 cells; PD-1 effector Jurkat cells
Conditions: not given
Protocol: The PD-1/PD-L1 immune checkpoint bioassay (PD-1/PD-L1 Bioassay, Promega) was conducted according to the manufacturer’s protocol. PD-L1+ aAPC/CHO-K1 cells were seeded at a density of […] in 100 μL of medium [Ham’s F12, 10% fetal bovine serum (FBS)] in 96-well white flat-bottomed plates and incubated overnight at 37 °C in the presence of 5% CO2. The next day, the medium was removed, and serial dilutions of small molecule inhibitors were added at 40 μL per well in assay buffer (RPMI1640 + 1% FBS + 1% DMSO). […] The cells were cocultured for 6 h at 37 °C with 5% CO2 followed by a 5 min equilibration at room temperature. Bio-Glo Reagent (Promega) was prepared and added at 80 μL per well. After a 15 min incubation at room temperature, luminescence was measured using a Tecan Spark microplate reader. Data are presented as fold induction of luminescence relative to DMSO-treated cells. EC50 values were calculated using the log(inhibitor) vs response variable slope (four-parameter) analysis model with GraphPad Prism software.
Target sequence in this assay (Q9NZQ7 19-290): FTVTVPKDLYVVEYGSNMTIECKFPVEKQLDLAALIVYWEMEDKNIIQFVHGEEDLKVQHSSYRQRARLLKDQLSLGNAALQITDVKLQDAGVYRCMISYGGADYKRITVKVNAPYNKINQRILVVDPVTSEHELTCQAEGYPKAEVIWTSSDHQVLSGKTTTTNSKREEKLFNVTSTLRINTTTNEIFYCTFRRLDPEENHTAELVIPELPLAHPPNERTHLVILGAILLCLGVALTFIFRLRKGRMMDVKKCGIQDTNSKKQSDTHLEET

SMILES | EC50 [µM]
Cc1c(NC(=O)c2ccc(CNCCCO)cn2)cccc1-c1cccc(NC(=O)c2ccc(CN(CCO)CCO)cn2)c1C [Compound 3] | ~0.2
Cc1c(NC(=O)c2ccc(CNCCCO)cn2)cccc1-c1cccc(NC(=O)c2ccc(CN(C)C(CO)CO)cn2)c1C [Compound 5] | ~0.2

Same assay, conditions: PD-L1+ aAPC/CHO-K1 cells cocultured 6 h with PD-1 effector Jurkat cells; read-out: PD-1/PD-L1 blockade, NFAT reporter bioassay EC50

SMILES | EC50 [µM]
Cc1c(NC(=O)c2ccc(CN[C@@H](C)CO)cn2)cccc1-c1cccc(NC(=O)c2ccc(CN(C)CCO)cn2)c1C [Compound 2] | 0.0218
Cc1c(NC(=O)c2ccc(CN[C@@H](C)CO)cn2)cccc1-c1cccc(NC(=O)c2ccc(CN(C)CCO)cn2)c1C.Cl.Cl.Cl [Compound 2a] | 0.025
Cc1c(NC(=O)c2ccc(CNCCCO)cn2)cccc1-c1cccc(NC(=O)c2ccc(CN(CCO)CCO)cn2)c1C [Compound 3] | 0.251
Cc1c(NC(=O)c2ccc(CNCCCO)cn2)cccc1-c1cccc(NC(=O)c2ccc(CN(C)C(CO)CO)cn2)c1C [Compound 5] | 0.11
Cc1c(NC(=O)c2ccc(CNCCO)cn2)cccc1-c1cccc(NC(=O)c2ccc(CNCCCNS(C)(=O)=O)cn2)c1C.Cl.Cl.Cl.Cl [Compound 17a] | 0.0763

Biological target: T3, hPD-L1 (human PD-L1) (Homo sapiens, UniProt Q9NZQ7)
T3 construct: The human PD-L1 IgV domain (residues 18–134, C-terminal His-tag) was expressed and purified; His-tag (C); made in house
Assay: 1H NMR titration with hPD-L1
Assay type: binding
Conditions: molar ratio protein to compound 1:1
Protocol: Representative molecules were evaluated for their interaction with PD-L1 by means of an ^1H NMR titration experiment.

T3 sequence (Q9NZQ7 18-134): as the sequence (Q9NZQ7 18-134, one chain of several) above

SMILES | effect on hPD-L1 1H NMR lines (broadening)
Cc1c(NC(=O)c2ccc(CNCCO)cn2)cccc1-c1cccc(NC(=O)c2ccc(CNCCCNS(C)(=O)=O)cn2)c1C.Cl.Cl.Cl.Cl [Compound 17a] | oligomerization
